In patent US20090176817A1, “Method of Treatment of Diarrhea-Predominant Irritable Bowel Syndrome in a Subject” (priority 2005, published 2009):
Where two headings read alike, the source gives them in different places.

Key:
Format in all cases: in vivo, human
[1] = tested on: diarrhea-predominant IBS subjects; set-up: key to Daily stool consistency score, mean change from Baseline at end of treatment / Mean stool consistency score at end of treatment / Stool consistency, mean change from rerandomization Baseline: stool consistency on a seven-point daily diary scale
From the text: (§1) Studies S24 1.3.OO6, S24 1.3.0 1 1, and S24 1.3.009 used the following efficacy measurements: • The subjects answered the following three questions with “yes” or “no” using a phone diary at the end of each week: • a) During the last week, did you experience adequate relief of your IBS symptoms, such as abdominal pain, abdominal discomfort, abnormal bowel habits? • b) During the last week, did you experience adequate relief of your abdominal pain and/or discomfort? • c) During the last week, did you experience adequate relief of your abnormal bowel habits? • The subjects rated the following symptoms using the phone diary at the end of each day: • abdominal pain/discomfort (five-point scale); • stool consistency (seven-point Bristol Stool Scale); • stool frequency (number of bowel movements each day); • urgency (five-point scale); • straining (yes or no); • feeling of incomplete defecation (yes or no); • bloating or feeling of abdominal distension (five-point scale). • In Studies S241 A006 and S241.3.009, subjects completed the IBS-QOL Survey at Baseline (Day 1) and at the end of treatment. In Study S24 1.3.0 1 1, subjects completed the IBS-QOL Survey at Baseline (Day 1), at the end of the three-month treatment period, and at the end of rerandomized treatment.
(§2) Other secondary efficacy parameters for all three studies included: • Responder rate for the weekly diary questions on adequate relief at each month, where a responder for a month (monthly responder) was defined as a subject who answered the weekly question with “yes” at least twice for that month. The responder rate was the percentage of responders within a treatment group. The all-month responder rate for the weekly diary questions on adequate relief was also evaluated, where an all-month responder was defined as a subject who answered the weekly question with “yes” at least twice for each month. The all-month responder rate was the percentage of all-month responders within a treatment group; • Adequate relief rate for the weekly diary questions was calculated for each subject as the number of weekly assessments with adequate relief (“yes”) divided by the total number of weekly assessments; • Percentage of subjects with adequate relief for the weekly diary questions at each week; • Daily diary questions regarding abdominal pain/discomfort (five-point scale), stool consistency (seven-point scale), stool frequency (number of bowel movements each day), straining (yes or no), urgency (five-point scale), feeling of incomplete evacuation (yes or no), and bloating or feeling of abdominal distention (five-point scale); • QOL data assessed by the IBS-QOL questionnaire; and • Question to determine the interruption of activities.

[2] = tested on: diarrhea-predominant IBS subjects; conditions: for Percentage of Subjects Who Worsened from Baseline: Daily Abdominal Pain / Percentage of Subjects Who Worsened from Baseline: Daily Urgency: S241.3.006, observed value
From the text: as §1, §2
The deterioration of effect analyses focus is to evaluate the percentage of subjects who worsened from Baseline. Clinical limits were set in order to capture a clinically meaningful number of subjects who worsened from Baseline. This clinical limit was also used in identifying those who improved from Baseline which led to a much larger percentage of subjects meeting this criterion. Percentages of subjects who improved from Baseline for these analyses are discussed in order to understand the context of the percentage of subjects who worsened.

[3] = tested on: diarrhea-predominant IBS subjects; assay: Study S241.3.011: IBS-QOL; conditions: for Mean change in IBS-QoL subscale Body Image / Mean change in IBS-QoL subscale Dysphoria / Mean change in IBS-QoL subscale Food Avoidance / Mean change in IBS-QoL subscale Health Worry / Mean change in IBS-QoL subscale Interference with Activity / Mean change in IBS-QoL subscale Relationship / Mean change in IBS-QoL subscale Sexual / Mean change in IBS-QoL subscale Social Reaction / Mean change in IBS-QoL, Overall: RR (four-week rerandomization) period
From the text: as §1, §2

[4] = tested on: diarrhea-predominant IBS subjects; assay: Study S241.3.011: interruption of activities assessment
From the text: as §1, §2

Cc1nccn1C[C@H]1CCc2c(c3cccc4c3n2CCC4)C1=O [Cilansetron, (R)-(−)-4,5,6,8,9,10-hexahydro-10-[(2-methyl-1H-imidazol-1-yl)methyl]-11H-pyrido-[3,2,1-jk]-carbazol-11-one]
Mean number of stools per day at end of treatment ([1]; 2 mg TID): 2.41 stools per day
Abdominal pain/discomfort, mean change from rerandomization Baseline ([1]; C/C): −0.09
Bloating, mean change from rerandomization Baseline ([1]; C/C): −0.05
Incomplete evacuation, mean change from Rerandomization Baseline ([1]; C/C): 0.01
Stool consistency, mean change from rerandomization Baseline ([1]; C/C): −0.09
Stools per day, mean change from rerandomization Baseline ([1]; C/C): −0.02
Urgency, mean change from rerandomization Baseline ([1]; C/C): −0.05
Abdominal pain/discomfort, mean change from rerandomization Baseline ([1]; C/P): 0.16
Bloating, mean change from rerandomization Baseline ([1]; C/P): 0.16
Incomplete evacuation, mean change from Rerandomization Baseline ([1]; C/P): 0.05
Stool consistency, mean change from rerandomization Baseline ([1]; C/P): 0.55
Stools per day, mean change from rerandomization Baseline ([1]; C/P): 0.22
Urgency, mean change from rerandomization Baseline ([1]; C/P): 0.25
Abdominal pain/discomfort, mean change from rerandomization Baseline ([1]; P/C): −0.08
Bloating, mean change from rerandomization Baseline ([1]; P/C): −0.03
Incomplete evacuation, mean change from Rerandomization Baseline ([1]; P/C): −0.02
Stool consistency, mean change from rerandomization Baseline ([1]; P/C): −0.84
Stools per day, mean change from rerandomization Baseline ([1]; P/C): −0.31
Urgency, mean change from rerandomization Baseline ([1]; P/C): −0.27
Median rate of urgency-free days ([1]; end of treatment): 0.25
Median rate of pain-free days ([1]; end of treatment (last two weeks)): 0.15
Bloating or abdominal distention score, mean change from Baseline at end of treatment ([1]; in vivo): −0.43
Daily abdominal pain/discomfort score, mean change from Baseline at end of treatment ([1]; in vivo): −0.69
Daily stool consistency score, mean change from Baseline at end of treatment ([1]; in vivo): −1.02
Daily urgency score, mean change from Baseline at end of treatment ([1]; in vivo): −0.78
Feeling of incomplete evacuation, mean change from Baseline at end of treatment ([1]; in vivo): −0.20
Mean stool consistency score at end of treatment ([1]; in vivo): 4.28
Mean straining, mean change from Baseline at end of treatment ([1]; in vivo): 0.05
Stools per day, mean change from Baseline at end of treatment ([1]; in vivo): −0.91
Median rate of pain-free days ([1]; three-month period): 0.22
Median rate of urgency-free days ([1]; three-month period): 0.31
Mean number of stools per day at end of treatment ([2]; 2 mg TID): 2.45 stools per day
Percentage of Subjects Who Worsened from Baseline: Daily Abdominal Pain ([2]; Weeks 1-2, 2 mg TID): 13%
Percentage of Subjects Who Worsened from Baseline: Daily Urgency ([2]; Weeks 1-2, 2 mg TID): 5%
Percentage of Subjects Who Worsened from Baseline: Daily Abdominal Pain ([2]; Weeks 3-4, 2 mg TID): 8%
Percentage of Subjects Who Worsened from Baseline: Daily Urgency ([2]; Weeks 3-4, 2 mg TID): 5%
Percentage of Subjects Who Worsened from Baseline: Daily Abdominal Pain ([2]; Weeks 5-6, 2 mg TID): 9%
Percentage of Subjects Who Worsened from Baseline: Daily Urgency ([2]; Weeks 5-6, 2 mg TID): 8%
Percentage of Subjects Who Worsened from Baseline: Daily Abdominal Pain ([2]; Weeks 7-8, 2 mg TID): 7%
Percentage of Subjects Who Worsened from Baseline: Daily Urgency ([2]; Weeks 7-8, 2 mg TID): 5%
Percentage of Subjects Who Worsened from Baseline: Daily Abdominal Pain ([2]; Weeks 9-10, 2 mg TID): 8%
Percentage of Subjects Who Worsened from Baseline: Daily Urgency ([2]; Weeks 9-10, 2 mg TID): 8%
Percentage of Subjects Who Worsened from Baseline: Daily Abdominal Pain ([2]; Weeks 11-12, 2 mg TID): 8%
Percentage of Subjects Who Worsened from Baseline: Daily Urgency ([2]; Weeks 11-12, 2 mg TID): 8%
Subjects worsened from Baseline, daily abdominal pain ([2]; Weeks 1-2): 13%
Subjects worsened from Baseline, daily urgency ([2]; Weeks 1-2): 5%
Median rate of urgency-free days ([2]; end of treatment): 0.27
Bloating or abdominal distention score, change from Baseline at end of treatment ([2]; in vivo): −0.48
Daily abdominal pain/discomfort score, change from Baseline at end of treatment ([2]; in vivo): −0.69
Daily stool consistency score, change from Baseline at end of treatment ([2]; in vivo): −1.22
Daily urgency score, change from Baseline at end of treatment ([2]; in vivo): −0.87
Feeling of incomplete evacuation, change from Baseline at end of treatment ([2]; in vivo): −0.18
Mean stool consistency score at end of treatment ([2]; in vivo): 4.10
Mean straining, change from Baseline at end of treatment ([2]; in vivo): 0.09
Stools per day, change from Baseline at end of treatment ([2]; in vivo): −0.98
Median rate of pain-free days ([2]; three-month period): 0.19
Median rate of urgency-free days ([2]; three-month period): 0.32
Overall IBS-QOL score, mean change from rerandomization Baseline ([3]; C/C): 0.9
Overall IBS-QOL score, mean change from rerandomization Baseline ([3]; C/P): −4.9
Overall IBS-QOL score, mean change from rerandomization Baseline ([3]; P/C): 5.1
Mean change in IBS-QoL subscale Body Image ([3]; C/C group): −0.8
Mean change in IBS-QoL subscale Dysphoria ([3]; C/C group): +2.2
Mean change in IBS-QoL subscale Food Avoidance ([3]; C/C group): +0.6
Mean change in IBS-QoL subscale Health Worry ([3]; C/C group): +0.2
Mean change in IBS-QoL subscale Interference with Activity ([3]; C/C group): +1.4
Mean change in IBS-QoL subscale Relationship ([3]; C/C group): +1.7
Mean change in IBS-QoL subscale Sexual ([3]; C/C group): −1.4
Mean change in IBS-QoL subscale Social Reaction ([3]; C/C group): +0.3
Mean change in IBS-QoL, Overall ([3]; C/C group): +0.9
Mean change in IBS-QoL subscale Body Image ([3]; C/P group): −3.0
Mean change in IBS-QoL subscale Dysphoria ([3]; C/P group): −6.0
Mean change in IBS-QoL subscale Food Avoidance ([3]; C/P group): −4.7
Mean change in IBS-QoL subscale Health Worry ([3]; C/P group): −1.0
Mean change in IBS-QoL subscale Interference with Activity ([3]; C/P group): −6.4
Mean change in IBS-QoL subscale Relationship ([3]; C/P group): −3.0
Mean change in IBS-QoL subscale Sexual ([3]; C/P group): −3.5
Mean change in IBS-QoL subscale Social Reaction ([3]; C/P group): −5.9
Mean change in IBS-QoL, Overall ([3]; C/P group): −4.9
Mean change in IBS-QoL subscale Body Image ([3]; P/C group): +5.0
Mean change in IBS-QoL subscale Dysphoria ([3]; P/C group): +1.4
Mean change in IBS-QoL subscale Food Avoidance ([3]; P/C group): +7.9
Mean change in IBS-QoL subscale Health Worry ([3]; P/C group): +2.1
Mean change in IBS-QoL subscale Interference with Activity ([3]; P/C group): +7.9
Mean change in IBS-QoL subscale Relationship ([3]; P/C group): +1.4
Mean change in IBS-QoL subscale Sexual ([3]; P/C group): +1.4
Mean change in IBS-QoL subscale Social Reaction ([3]; P/C group): +3.8
Mean change in IBS-QoL, Overall ([3]; P/C group): +5.1
IBS-QOL body image, treatment difference ([3]; vs placebo): 6.60
IBS-QOL dysphoria, treatment difference ([3]; vs placebo): 8.16
IBS-QOL food avoidance, treatment difference ([3]; vs placebo): 9.64
IBS-QOL health worry, treatment difference ([3]; vs placebo): 4.05
IBS-QOL interference with activity, treatment difference ([3]; vs placebo): 10.57
IBS-QOL overall score, treatment difference in mean change from Baseline at Endpoint ([3]; vs placebo): 7.53
IBS-QOL relationships, treatment difference ([3]; vs placebo): 4.72
IBS-QOL sexual, treatment difference ([3]; vs placebo): 5.93
IBS-QOL social reaction, treatment difference ([3]; vs placebo): 5.53
Subjects “not at all or rarely” bothered, rerandomization Endpoint ([4]; C/C): 54%
Subjects “not at all or rarely” bothered, rerandomization Endpoint ([4]; C/P): 37%
Subjects “not at all or rarely” bothered by IBS symptoms ([4]; Endpoint, 3-month period): 46%
Subjects “not at all or rarely” bothered, rerandomization Endpoint ([4]; P/C): 50%
